Literature values, collected in US8858953B2, “Herbal composition for treating cancer” (priority 2011, dated 2014).

Test system: Epidermal Growth Factor Receptor (EGFR) mutation lung cancer
Details: lung cancer patients with EGFR mutation

Question: For `C#Cc1cccc(Nc2ncnc3cc(OCCOC)c(OCCOC)cc23)c1` [Erlotinib], which progression free survival is on record?
Answer: up to 9 months
